Measurements: patent publication US20240398727A1, “(S)-5-(1-(3,5-BIS(TRIFLUOROMETHYL)PHENOXY)ETHYL)CYCLOHEXANE-1,3-DIONE (NU-9) IMPROVES THE HEALTH OF DISEASED UPPER MOTOR NEURONS” (Northwestern University, priority 2021, published 2024)

What was measured:
[1] = system: UMNs of hSOD1^G93A-UeGFP mice; experiment: Axon outgrowth of UMNs diseased by mSOD1 toxicity in dissociated motor cortex culture; type: cell-based, mouse; settings: 3 days in vitro; for average length of UMN axons: SFM control 227.62±19.63 μm, WT 321.41±17.54 μm
Description: (§1) Mice. All animal procedures were approved by the Northwestern University Animal Care and Use committee and comply with the standards of the National Institutes of Health. All mice were on C57BL/6 background. Transgenic hemizygous males expressing a high copy number of the human SOD1 gene with a G93A mutation (B6SJL-Tg (SOD1*G93A)1Gur/J; The Jackson Laboratory) were bred to hemizygous UCHL1-eGFP females to generate hSOD1^G93A-UeGFP and WT-UeGFP (control) mice. UCHL1-eGFP mice were generated in the Ozdinler Lab; they are reporter lines for UMNs (Yasvoina, Genc et al. 2013), and are now available at Jackson Laboratory (stock no. 022476). Hemizygous UCHL1-eGFP females were bred to hemizygous prpTDP-43^A315T mice (procured from Jackson Laboratory, stock no. 010700) to generate prpTDP-43^A315T-UeGFP mice. prpTDP-43^A315T mice were supplied with gel diet (DietGel 76A, ClearH2O, ME, USA) to eliminate gastrointestinal (GI) complications. Transgenic mice were identified by PCR amplification of DNA extracted from their tail, as previously described (Gurney, Pu et al. 1994, Wegorzewska, Bell et al. 2009, Yasvoina, Genc et al. 2013, Gautam, Jara et al. 2019). Mice with different genotypes are abbreviated in the figures as follows: WT-UeGFP (control) mice=G mice; hSOD1^G93A-UeGFP mice=GS mice; prpTDP-43^A315T-UeGFP mice=GTDP mice.
(§2) Compound preparation and delivery. NU-9 was prepared as 100 μM stock in dimethylsulfoxide (DMSO) and added to serum free medium (SFM) at a final concentration of 400 nM (4 μl per 1 ml SFM). […] Edaravone (Sigma-Aldrich) was prepared as 1 mM stock in DMSO and added at a final concentration of 1 μM in SFM (1 μl per 1 ml SFM). Amylyx AMX-0035 compound was a combination of 1 mM of 4-Phenylbutyric acid (4-PBA, Sigma Aldrich)+100 μM Tauroursodeoxycholic Acid, Sodium Salt (TUDCA, Millipore Sigma) added into SFM (4-PBA was prepared as a 21.5 mM stock in water and added at 46.5 μl per 1 ml SFM, TUDCA was prepared as 20 mM stock in water, and added at 5 μl per 1 ml SFM).
(§3) UMN Cultures. P3 motor cortices isolated from WT-UeGFP, hSOD1^G93A-UeGFP, and prpTDP-43^A315T-UeGFP mice were dissected, dissociated, and cultured on glass coverslips (4×10^4 cells per 18 mm diameter coverslip, Fisherbrand) coated with poly-L-lysine (10 mg/mL, Sigma) as previously described (Ozdinler and Macklis 2006). […]
(§4) UMNs were quantitatively analyzed for differences in neurite length and arborization complexity. Images taken with a 20× objective on the epifluorescent microscope (Nikon) were analyzed using the Neurite Tracer plugin from FIJI (NIH), which enables semi-autonomous tracing to measure the length of the axon. […]

[2] = system: UMNs from prpTDP-43^A315T-UeGFP mice; type: cell-based; settings: prpTDP-43^A315T-UeGFP UMNs, 3 days in vitro; for average length of the axons of UMNs: SFM control 199.52±21.15 μm, WT 321.41±17.54 μm
Description: as §1, §2, §3, §4

[3] = system: UMNs of hSOD1^G93A-UeGFP mice; experiment: Sholl analysis of arborization and branching, UMNs diseased by mSOD1 toxicity; type: cell-based, mouse; settings: 3 days in culture, data not shown
Procedure: (§5) UMN Cultures. P3 motor cortices isolated from WT-UeGFP, hSOD1^G93A-UeGFP, and prpTDP-43^A315T-UeGFP mice were dissected, dissociated, and cultured on glass coverslips (4×10^4 cells per 18 mm diameter coverslip, Fisherbrand) coated with poly-L-lysine (10 mg/mL, Sigma) as previously described (Ozdinler and Macklis 2006). Neurons were cultured in SFM [0.034 mg/L BSA, 1 mM L-glutamine, 25 U/mL penicillin, 0.025 mg/mL streptomycin, 35 mM glucose, and 0.5% B27 in Neurobasal-A medium (Life Technologies)] in a humidified tissue culture incubator in the presence of 5% CO2 at 37° C. […] Cultures were fixed after 3 days in vitro (DIV).
(§6) UMNs were quantitatively analyzed for differences in neurite length and arborization complexity. Images taken with a 20× objective on the epifluorescent microscope (Nikon) were analyzed using the Neurite Tracer plugin from FIJI (NIH), which enables semi-autonomous tracing to measure the length of the axon. The aggregation of the neurite tracings centered at the soma generates a profile available for Sholl analysis.

[4] = literature value; cited from earlier work
[5] = system: UMNs from prpTDP-43^A315T-UeGFP mice; experiment: Sholl analysis of arborization and branching, UMNs with TDP-43 pathology; type: cell-based, mouse; settings: prpTDP-43^A315T-UeGFP UMNs; data not shown
Procedure: as §5, §6
Statistical analysis. All analyses were performed using Prism software (GraphPad Software). The D'Agostino and Pearson normality test was performed on all datasets. Statistical differences between more than two groups were determined by one-way ANOVA followed by the Tukey's post-hoc multiple-comparison test. […]

male BALB/c mice = settings: mouse, in vivo, po, 100 mg/kg/day
Procedure: Repeated dose toxicity study was performed at Laboratory Animal House (LAH), Toxicology, Sai Life Science Ltd., Chrysalis Enclave, Phase II, Hinjewadi, Pune-411 057, Maharashtra, India.

[6] = male, BALB/c, mouse, in vivo, po
in vivo = settings: BALB/c, mouse, 100 mg/kg/day
[7] = Plasma, brain and CNS concentrations after repeated oral dosing; settings: mice, 100 mg/kg/day via daily gavage
[8] = system: misfolded SOD1 (mSOD1) mouse model; settings: literature (Snow 2003, Scott 2008); cited from earlier work
[9] = NU-9 400 nM, riluzole 500 nM, edaravone 1 μM
[10] = riluzole 500 nM, edaravone 1 μM

Row | Structure (SMILES) | average length of UMN axons [1, 9] | overall axon outgrowth (distribution of longest axons) [1, 10] | average length of the axons of UMNs [2, 9] | percentage of UMNs with axons in the range of 200-399 μm [2, 10] | UMN arborization (Sholl measurements) [3] | concentration reported to be present in the CNS after the optimum dose used in clinical trials [4] | percent of UMNs with an axon within the range of 300-399 μm ([1]; NU-9 400 nM) | percentage of UMNs with axons longer than 300 μm ([2]; NU-9 400 nM, vehicle 26%) | neuronal arborization and branching (Sholl analyses) [5] | mortality (male BALB/c mice) | time till which plasma concentrations were quantifiable [6] | time up to which brain concentrations were quantifiable [6] | concentration at 7 day (in vivo; CNS, oral) | Tmax (in vivo; male, plasma, po) | dose (concentration) detected in CNS [7] | longevity of the mSOD1 mouse model [8]
1 | CC1=NN(c2ccccc2)C(=O)C1 [edaravone, 2,4-Dihydro-5-methyl-2-phenyl-3H-pyrazol-3-one, reference compound] | 289.58±22.71 μm | improved overall axon outgrowth | 282.57±32.39 μm | 62% | improved UMN arborization, but to a lesser extent | 1000 nM |  |  |  |  |  |  |  |  |  | 
2 | C[C@H](Oc1cc(C(F)(F)F)cc(C(F)(F)F)c1)C1CC(=O)CC(=O)C1 [NU-9, (S)-5-(1-(3,5-bis(trifluoromethyl)phenoxy)ethyl)cyclohexane-1,3-dione] | 346.76±12.32 μm |  | 397.73±14.09 μm |  | more complex and arborized UMNs |  | about 44.4% | 88% | enhanced neuronal arborization and branching | did not result in mortality | up to 24 h | up to 24 h | 400 nM | 30 min | 400 nM | 
3 | Nc1nc2ccc(OC(F)(F)F)cc2s1 [riluzole, 2-Amino-6-(trifluoromethoxy)benzothiazole] |  |  |  |  |  |  |  |  |  |  |  |  |  |  |  | failed to improve the longevity
